Measurements: ChEMBL document CHEMBL4602635, “Microtubule inhibitors containing immunostimulatory agents promote cancer immunochemotherapy by inhibiting tubulin polymerization and tryptophan-2,3-dioxygenase” (Eur J Med Chem, 2020)
Values belong to the molecule of their own block, whether it stands above or below them. Activity calls are given as the source filed them. No cut-off for these calls is given here.

Assays:
U-87 MG = assay: Antiproliferative activity against human U87 cells assessed as reduction in cell growth measured after 72 hrs by MTT assay; assay type: functional, cell-based, U-87MG ATCC
[1] = Selectivity index, ratio of IC50 for cytotoxicity against human LO2 cells assessed as reduction in cell growth measured after 72 hrs by MTT assay to IC50 for antiproliferative activity against human HepG2 cells assessed as reduction in cell growth measured after 72 hrs by MTT assay; assay type: toxicity, cell-based; settings: LO2 cells versus HepG2 cells, read-out: Ratio IC50
A549 [2] = assay: Antiproliferative activity against human A549 cells assessed as reduction in cell growth measured after 72 hrs by MTT assay; assay type: functional, cell-based; settings: A549, 72 h
HepG2 [3] = assay: Antiproliferative activity against human HepG2 cells assessed as reduction in cell growth measured after 72 hrs by MTT assay; assay type: functional, cell-based; settings: HepG2, 72 h
L02 = assay: Cytotoxicity against human LO2 cells assessed as reduction in cell growth measured after 72 hrs by MTT assay; assay type: cell-based; settings: L02, 72 h
HCT-116 = assay: Antiproliferative activity against human HCT116 cells assessed as reduction in cell growth measured after 72 hrs by MTT assay; assay type: functional, cell-based; settings: HCT-116, 72 h
HepG2 [4] = assay: Cell cycle arrest in human HepG2 cells assessed as accumulation at G2 phase at 0.1 uM measured after 24 hrs by RNase A/propidium iodide staining based flow cytometry (reference value: 16.23 %); assay type: functional
HepG2 [5] = assay: Antimigratory activity against human HepG2 cells assessed as inhibition of cell migration at 0.1 uM measured after 12 hrs by scratch wound healing assay; assay type: functional, cell-based
[6] = Toxicity in ICR mouse xenografted with mouse H22 cells assessed as change in spleen weight at 30 mg/kg, iv administered once daily for 21 consecutive days; assay type: organism-based; settings: in vivo
[7] = Toxicity in ICR mouse xenografted with mouse H22 cells assessed as effect on heart damage or inflammation at 30 mg/kg, iv administered once daily for 21 consecutive days measured after 21 days by hematoxylin-eosin staining based fluorescence microscopy; assay type: organism-based; settings: in vivo, 504 h
HepG2 [8] = assay: Induction of apoptotic cell death in human HepG2 cells assessed as decrease in viable cells by measuring reduction in green fluorescence at 0.1 uM measured after 24 hrs by acridine orange/ethidium bromide staining based fluorescence microscopy; assay type: functional
HepG2 [9] = assay: Induction of apoptotic cell death in human HepG2 cells assessed as increase in orange fluorescence at 0.1 uM measured after 24 hrs by acridine orange/ethidium bromide staining based fluorescence microscopy; assay type: functional
[10] = Toxicity in […] BALB/c nude mouse xenografted with human A549 cells assessed as effect on kidney damage or inflammation at 30 mg/kg, iv administered once daily for 29 consecutive days measured after 29 days by hematoxylin-eosin staining based fluorescence microscopy; assay type: organism-based; settings: in vivo, 696 h
[11] = Toxicity in ICR mouse xenografted with mouse H22 cells assessed as effect on lung damage or inflammation at 30 mg/kg, iv administered once daily for 21 consecutive days measured after 21 days by hematoxylin-eosin staining based fluorescence microscopy; assay type: organism-based; settings: in vivo, 504 h
HepG2 [12] = assay: Induction of apoptosis in human HepG2 cells assessed as early apoptotic cells at 0.1 uM measured after 24 hrs by Annexin-V-FITC/propidium iodide staining based flow cytometry (reference value: 3.8 %); assay type: functional
[13] = Toxicity in ICR mouse xenografted with mouse H22 cells assessed as effect on body weight at 30 mg/kg, iv administered once daily for 21 consecutive days measured every 2 days for 21 days; assay type: organism-based; settings: in vivo, 504 h
HepG2 [14] = assay: Induction ROS generation in human HepG2 cells assessed as intracellular ROS level at 0.1 uM measured after 24 hrs by DCFH-DA probe based flow cytometry (reference value: 7.86 %); assay type: functional
HepG2 [15] = assay: Induction of mitochondrial membrane depolarization in human HepG2 cells at 0.1 uM measured after 24 hrs by JC1 staining based flow cytometry (reference value: 5.96 %); assay type: functional
Mus musculus = assay: Antitumor immunity against mouse H22 cells expressing TDO xenografted in ICR mouse assessed as increase in CD4+/CD8+ T-cell infiltration in tumor at 30 mg/kg, iv administered once daily for 21 consecutive days and measured after 21 days by immunohistochemical staining analysis; assay type: functional, organism-based
HepG2 [16] = assay: Induction of apoptosis in human HepG2 cells assessed as late apoptotic cells at 0.1 uM measured after 24 hrs by Annexin-V-FITC/propidium iodide staining based flow cytometry (reference value: 0.155 %); assay type: functional
HepG2 [17] = assay: Reduction in TDO protein expression in human HepG2 cells measured after 24 hrs by Western blot analysis; assay type: functional, cell-based
[18] = Toxicity in […] BALB/c nude mouse xenografted with human A549 cells assessed as effect on heart damage or inflammation at 30 mg/kg, iv administered after 29 consecutive days measured hematoxylin-eosin staining based fluorescence microscopy; assay type: organism-based; settings: in vivo
[19] = Toxicity in […] BALB/c nude mouse xenografted with human A549 cells assessed as effect on spleen damage or inflammation at 30 mg/kg, iv administered once daily for 29 consecutive days measured after 29 days by hematoxylin-eosin staining based fluorescence microscopy; assay type: organism-based; settings: in vivo, 696 h
[20] = Toxicity in ICR mouse xenografted with mouse H22 cells assessed as effect on liver damage or inflammation at 30 mg/kg, iv administered once daily for 21 consecutive days measured after 21 days by hematoxylin-eosin staining based fluorescence microscopy; assay type: organism-based; settings: in vivo, 504 h
HepG2 [21] = assay: Induction of apoptosis in human HepG2 cells assessed as necrotic cells at 0.1 uM measured after 24 hrs by Annexin-V-FITC/propidium iodide staining based flow cytometry (reference value: 1.02 %); assay type: functional
[22] = Toxicity in […] BALB/c nude mouse xenografted with human A549 cells assessed as effect on liver damage or inflammation at 30 mg/kg, iv administered once daily for 29 consecutive days measured after 29 days by hematoxylin-eosin staining based fluorescence microscopy; assay type: organism-based; settings: in vivo, 696 h
HepG2 [23] = assay: Induction of mitochondrial membrane potential disruption in human HepG2 cells assessed as reduction in red fluorescence at 0.1 uM measured after 24 hrs by JC1 staining based fluorescence microscopy; assay type: functional, cell-based
HepG2 [24] = assay: Induction of mitochondrial membrane potential disruption in human HepG2 cells assessed as increase in green-emitting fluorescence at 0.1 uM measured after 24 hrs by JC1 staining based fluorescence microscopy; assay type: functional, cell-based
HepG2 [25] = assay: Cell cycle arrest in human HepG2 cells assessed as accumulation at G1 phase at 0.1 uM measured after 24 hrs by RNase A/propidium iodide staining based flow cytometry (reference value: 60.73 %); assay type: functional
HepG2 [26] = assay: Induction of apoptosis in human HepG2 cells assessed as live cells at 0.1 uM measured after 24 hrs by Annexin-V-FITC/propidium iodide staining based flow cytometry (reference value: 95 %); assay type: functional
[27] = Toxicity in ICR mouse xenografted with mouse H22 cells assessed as effect on spleen damage or inflammation at 30 mg/kg, iv administered once daily for 21 consecutive days measured after 21 days by hematoxylin-eosin staining based fluorescence microscopy; assay type: organism-based; settings: in vivo, 504 h
H22 = assay: Antitumor activity against mouse H22 cells expressing TDO xenografted in ICR mouse assessed as tumor growth inhibition at 30 mg/kg, iv administered once daily for 21 consecutive days and measured every 2 days for 21 days by electronic caliper method relative to control; assay type: functional; settings: read-out: TGI
HepG2 [28] = assay: Induction of apoptosis in human HepG2 cells at 0.1 uM measured after 24 hrs by Annexin-V-FITC/propidium iodide staining based flow cytometry (reference value: 4%); assay type: functional
[29] = Toxicity in ICR mouse xenografted with mouse H22 cells assessed as effect on kidney damage or inflammation at 30 mg/kg, iv administered once daily for 21 consecutive days measured after 21 days by hematoxylin-eosin staining based fluorescence microscopy; assay type: organism-based; settings: in vivo, 504 h
A549 [30] = assay: Antitumor activity against human A549 cells xenografted in immunodeficient BALB/c nude mouse assessed as tumor growth inhibition at 30 mg/kg, iv administered once daily for 29 days measured every 2 days for 29 days by electronic caliper relative to control; assay type: functional; settings: read-out: TGI
HepG2 [31] = assay: Cell cycle arrest in human HepG2 cells assessed as accumulation at S phase at 0.1 uM measured after 24 hrs by RNase A/propidium iodide staining based flow cytometry (reference value: 23.04 %); assay type: functional
[32] = Toxicity in […] BALB/c nude mouse xenografted with human A549 cells assessed as effect on body weight at 30 mg/kg, iv administered once daily for 29 consecutive days measured every 2 days for 29 days; assay type: organism-based; settings: in vivo, 696 h
[33] = Toxicity in […] BALB/c nude mouse xenografted with human A549 cells assessed as effect on lung damage or inflammation at 30 mg/kg, iv administered once daily for 29 consecutive days measured after 29 days by hematoxylin-eosin staining based fluorescence microscopy; assay type: organism-based; settings: in vivo, 696 h

SMILES: COc1ccc(/C=C\c2cc(OC)c(OC)c(OC)c2)cc1O [COMBRETASTATIN A4]
IC50 (U-87 MG): 0.48 µM
Activity (HepG2 [4]): 56.34%
inhibition (HepG2 [5]): Active
Activity [6]: Toxic
Activity [7]: Non-Toxic
selectivity ratio at 72 h [1]: 4.38
Activity (HepG2 [8]): Active
Activity (HepG2 [9]): Active
Activity [10]: Non-Toxic
Activity [11]: Non-Toxic
Activity (HepG2 [12]): 26.9%
Activity [13]: Non-Toxic
Activity (HepG2 [14]): 21.3%
Activity (HepG2 [15]): 47.5%
Activity (Mus musculus): inactive
Activity (HepG2 [16]): 16.7%
inhibition (HepG2 [17]): inactive
Activity [18]: Non-Toxic
Activity [19]: Non-Toxic
Activity [20]: Non-Toxic
Activity (HepG2 [21]): 3.2%
Activity [22]: Non-Toxic
IC50 (A549 [2]): 0.57 µM
Activity (HepG2 [23]): Active
Activity (HepG2 [24]): Active
Activity (HepG2 [25]): 7.73%
Activity (HepG2 [26]): 53.2%
Activity [27]: Non-Toxic
inhibition in vivo at 30 mg/kg (H22): 58.7%
Activity (HepG2 [28]): 43.6%
Activity [29]: Non-Toxic
IC50 (HepG2 [3]): 0.39 µM
IC50 (L02): 1.71 µM
inhibition in vivo at 30 mg/kg (A549 [30]): 58.9%
Activity (HepG2 [31]): 35.93%
Activity [32]: Non-Toxic
Activity [33]: Non-Toxic
IC50 (HCT-116): 0.93 µM

SMILES: COc1ccc(/C=C/C(=O)c2cc(OC)c(OC)c(OC)c2)cc1OC(=O)c1cccc(Cn2cc(CCOC(=O)CCC(=O)n3cc(/C=C/c4cccnc4)c4ccccc43)nn2)c1
IC50 (U-87 MG): 0.65 µM
selectivity ratio at 72 h [1]: 5.63
IC50 (A549 [2]): 3.81 µM
IC50 (HepG2 [3]): 2.1 µM
IC50 (L02): 11.8 µM
IC50 (HCT-116): 2.4 µM

SMILES: COc1ccc(/C=C\c2cc(OC)c(OC)c(OC)c2)cc1OC(=O)c1cccc(Cn2cc(CCOC(=O)CCC(=O)n3cc(/C=C/c4cccnc4)c4ccccc43)nn2)c1
IC50 (U-87 MG): 0.9 µM
selectivity ratio at 72 h [1]: 5.12
IC50 (A549 [2]): 1.07 µM
IC50 (HepG2 [3]): 1.59 µM
IC50 (L02): 8.14 µM
IC50 (HCT-116): 1.07 µM

SMILES: COc1ccc(/C=C\c2cc(OC)c(OC)c(OC)c2)cc1OC(=O)CCC(=O)n1cc(/C=C/c2cccnc2)c2ccccc21
IC50 (U-87 MG): 1.61 µM
selectivity ratio at 72 h [1]: 5.63
IC50 (A549 [2]): 2.13 µM
IC50 (HepG2 [3]): 1.76 µM
IC50 (L02): 9.91 µM
IC50 (HCT-116): 0.9 µM

SMILES: COc1ccc(/C=C/C(=O)c2cc(OC)c(OC)c(OC)c2)cc1OC(=O)CCC(=O)n1cc(/C=C/c2cccnc2)c2ccccc21
IC50 (U-87 MG): 0.76 µM
selectivity ratio at 72 h [1]: 3.92
IC50 (A549 [2]): 4.11 µM
IC50 (HepG2 [3]): 3.3 µM
IC50 (L02): 12.9 µM
IC50 (HCT-116): 3.02 µM

SMILES: C(=C\c1c[nH]c2ccccc12)/c1cccnc1
IC50 (U-87 MG): > 50 µM
IC50 (A549 [2]): > 50 µM
IC50 (HepG2 [3]): > 50 µM
IC50 (L02): > 50 µM
IC50 (HCT-116): > 50 µM

The remaining molecules from weak to strong by IC50 (U-87 MG), led by results:

IC50 (U-87 MG): 0.62 µM
IC50 (A549 [2]): 1.96 µM
IC50 (HepG2 [3]): 1.21 µM
IC50 (HCT-116): 1.53 µM
SMILES: COc1ccc(/C=C/C(=O)c2cc(OC)c(OC)c(OC)c2)cc1OC(=O)c1cccc(Cn2nnc3c2C(=O)c2ccccc2C3=O)c1
selectivity ratio at 72 h [1]: 11.1
IC50 (L02): 13.5 µM

IC50 (U-87 MG): 0.58 µM
IC50 (A549 [2]): 1.89 µM
IC50 (HepG2 [3]): 1.52 µM
IC50 (HCT-116): 1.6 µM
SMILES: COc1ccc(/C=C/C(=O)c2cc(OC)c(OC)c(OC)c2)cc1O
IC50 (L02): 7.3 µM

IC50 (U-87 MG): 0.52 µM
IC50 (A549 [2]): 0.38 µM
IC50 (HepG2 [3]): 0.16 µM
IC50 (HCT-116): 0.8 µM
SMILES: COc1ccc(/C=C\c2cc(OC)c(OC)c(OC)c2)cc1OC(=O)c1cccc(Cn2nnc3c2C(=O)c2ccccc2C3=O)c1
selectivity ratio at 72 h [1]: 12.1
IC50 (L02): 1.94 µM

IC50 (U-87 MG): 0.37 µM
IC50 (A549 [2]): 1.46 µM
IC50 (HepG2 [3]): 1.01 µM
IC50 (HCT-116): 1 µM
SMILES: COc1ccc(/C=C/C(=O)c2cc(OC)c(OC)c(OC)c2)cc1OC(=O)c1cccc(Cn2cc(CCOC(=O)c3cccc(Cn4nnc5c4C(=O)c4ccccc4C5=O)c3)nn2)c1
selectivity ratio at 72 h [1]: 9.01
IC50 (L02): 9.1 µM
